# Assay results reported in patent US20240342292A1, “Compounds for the Degradation of EGFR Kinase” (BeiGene Switzerland GmbH, priority 2021, published 2024).
# Experiments:
# L858R/T790M/C797S EGFR = molecular target: T1, L858R/T790M/C797S EGFR (Homo sapiens, UniProt P00533, C797S/L858R/T790M); experiment: EGFR degradation HTRF assay in H1975-clone #25 (LTC) cells; format: cell-based; details: 16h treatment; for DC50: HTRF; for Dmax: NCI-H1975, H1975 # 25-LTC (L858R/T790M/C797S)
# T1 construct: expressed in transfected cells; host or cells: H1975 clone #25 (lentiviral over-expression, endogenous EGFR knocked out by sgRNA)
# How it was run: (§1)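 Cells carrying only lentiviral mutant EGFR, since endogenous alleles were removed by CRISPR, received compounds on day 2 for 16 h. Final concentrations ran from 10 uM down in 5-fold steps over 8 doses. After lysis, EGFR levels were quantified by HTRF and DC50 derived by curve fitting.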
# Del19/T790M/C797S EGFR = experiment: EGFR degradation HTRF assay in H1975-clone #28 (DTC) cells; format: cell-based; details: H1975 # 28 DTC (Del19/T790M/C797S), 16h treatment; for DC50: HTRF; for Dmax (%): maximum percentage of degradation
# How it was run: as §1
# [1] = H1975 # 25-LTC (L858R/T790M/C797S)
# [2] = maximum percentage of degradation
compound,measurement,setting,value
"Cc1cc2cc(n1)-c1cnn(C)c1OCCC[C@@H](C)CN1/C(=N/C2=O)Nc2ccc(C(=O)N(C)[C@@H]3C[C@H]4CC[C@@H](C3)N4CCc3cc(F)c([C@H]4CCC(=O)NC4=O)c(F)c3)cc21 [Example 265, (R,E)-N—((1R,3S,5S)-8-(4-((R)-2,6-dioxopiperidin-3-yl)-3,5-difluorophenethyl)-8-azabicyclo[3.2.1]octan-3-yl)-N,1^1,2^6,7-tetramethyl-3-oxo-5^2,5^3-dihydro-1^1H,5^1H-11-oxa-4-aza-5(2,1)-benzo[d]imidazola-2(2,4)-pyridina-1(4,5)-pyrazolacycloundecaphane-5^6-carboxamide]",DC50,L858R/T790M/C797S EGFR; [1],0.246 nM
same,Dmax,L858R/T790M/C797S EGFR; [2],90.9%
same,DC50,Del19/T790M/C797S EGFR,0.625 nM
same,Dmax (%),Del19/T790M/C797S EGFR,79.26%
"Cc1cc2cc(n1)-c1cnn(C)c1OCC[C@H]1C[C@@H]1CN1/C(=N/C2=O)Nc2ccc(N3CCN(C4CCN(c5cc(F)c([C@H]6CCC(=O)NC6=O)c(F)c5)CC4)CC3)cc21 [Example 391, (R)-3-(4-(4-(4-((7^1S,7^2R,E)-1^1,2^6-dimethyl-3-oxo-5^2,5^3-dihydro-1^1H,5^1H-10-oxa-4-aza-5(2,1)-benzo[d]imidazola-2(2,4)-pyridina-1(4,5)-pyrazola-7(1,2)-cyclopropanacyclodecaphane-5^6-yl)piperazin-1-yl)piperidin-1-yl)-2,6-difluorophenyl)piperidine-2,6-dione]",DC50,L858R/T790M/C797S EGFR; [1],1.56 nM
same,Dmax,L858R/T790M/C797S EGFR; [2],87.5%
same,DC50,Del19/T790M/C797S EGFR,1.54 nM
same,Dmax (%),Del19/T790M/C797S EGFR,85.34%
"(R)-3-(2,6-difluoro-4-(3-(7-(((R,E)-1^1,2^6,7-trimethyl-3-oxo-5^2,5^3-dihydro-1^1H,5^1H-11-oxa-4-aza-5(2,1)-benzo[d]imidazola-2(2,4)-pyridina-1(4,5)-pyrazolacycloundecaphane-5^6-yl)methyl)-2,7-diazaspiro[3.5]nonane-2-carbonyl)azetidin-1-yl)phenyl)piperidine-2,6-dione [Example 25]",DC50,L858R/T790M/C797S EGFR; [1],0.4 nM
same,Dmax (%),"L858R/T790M/C797S EGFR; H1975 # 25-LTC (L858R/T790M/C797S), maximum percentage of degradation",93.6%
same,DC50,Del19/T790M/C797S EGFR,0.6 nM
same,Dmax (%),Del19/T790M/C797S EGFR,86.3%
"Cc1cc2cc(n1)-c1cnn(C)c1OCCC[C@@H](C)CN1/C(=N/C2=O)Nc2ccc(C(=O)N(CCN3CCC(c4cc(F)c([C@H]5CCC(=O)NC5=O)c(F)c4)CC3)C(C)C)cc21 [Example 283, (R,E)-N-(2-(4-(4-((R)-2,6-dioxopiperidin-3-yl)-3,5-difluorophenyl)piperidin-1-yl)ethyl)-N-isopropyl-1^1,2^6,7-trimethyl-3-oxo-5^2,5^3-dihydro-1^1H,5^1H-11-oxa-4-aza-5(2,1)-benzo[d]imidazola-2(2,4)-pyridina-1(4,5)-pyrazolacycloundecaphane-5^6-carboxamide]",DC50,L858R/T790M/C797S EGFR; [1],0.494 nM
same,Dmax,L858R/T790M/C797S EGFR; [2],80.2%
same,DC50,Del19/T790M/C797S EGFR,0.617 nM
same,Dmax (%),Del19/T790M/C797S EGFR,72.52%
"Cc1cc2cc(n1)-c1cnn(C)c1OCCC[C@@H](C)CN1/C(=N/C2=O)Nc2ccc(CN3CCN(C(=O)[C@@H]4CCN(c5cc(F)c([C@H]6CCC(=O)NC6=O)c(F)c5)C4)C[C@H]3CO)cc21 [Example 196, (R)-3-(2,6-difluoro-4-((R)-3-((S)-3-(hydroxymethyl)-4-(((R,E)-1^1,2^6,7-trimethyl-3-oxo-5^2,5^3-dihydro-1^1H,5^1H-11-oxa-4-aza-5(2,1)-benzo[d]imidazola-2(2,4)-pyridina-1(4,5)-pyrazolacycloundecaphane-56-yl)methyl)piperazine-1-carbonyl)pyrrolidin-1-yl)phenyl)piperidine-2,6-dione]",DC50,L858R/T790M/C797S EGFR; [1],0.716 nM
same,Dmax,L858R/T790M/C797S EGFR; [2],87.1%
same,DC50,Del19/T790M/C797S EGFR,0.598 nM
same,Dmax (%),Del19/T790M/C797S EGFR,78.44%
"Cc1cc2cc(n1)-c1cnn(C)c1OCCC[C@@H](C)CN1/C(=N/C2=O)Nc2ccc(N3CCN(C4CCN(c5ccc(C6CCC(=O)NC6=O)nc5)CC4)CC3=O)cc21 (stereo partly drawn) [Example 395, 3-(5-(4-(3-oxo-4-((R,E)-1^1,2^6,7-trimethyl-3-oxo-5^2,5^3-dihydro-1^1H,5^1H-11-oxa-4-aza-5(2,1)-benzo[d]imidazola-2(2,4)-pyridina-1(4,5)-pyrazolacycloundecaphane-5^6-yl)piperazin-1-yl)piperidin-yl-)pyridin-2-yl)piperidine-2,6-dione]",DC50,L858R/T790M/C797S EGFR; [1],1.02 nM
same,Dmax,L858R/T790M/C797S EGFR; [2],84.5%
same,DC50,Del19/T790M/C797S EGFR,0.526 nM
same,Dmax (%),Del19/T790M/C797S EGFR,77.96%
